Data as given in paper PMC11073428, “The activity of pyrazolo[4,3-e][1,2,4]triazine and pyrazolo[4,3-e]tetrazolo[1,5-b][1,2,4]triazine sulphonamide derivatives in monolayer and spheroid breast cancer cell cultures” (Journal of Enzyme Inhibition and Medicinal Chemistry, 2024).

Legend:
[1] = system: caspase 3/7 in MCF-7 cells; assay: Activity of caspase 3/7, MCF-7; format: cell-based, human; conditions: MCF-7, 24 h; cell line does not express caspase 3
Method: (§1) MCF-7 and MDA-MB-231 cells were plated in six-well plates at density 1 × 10^6 and cultured in DMEM for 24 h. […] Then to identify the involvement of caspase family in inducing apoptosis, cells were pre-treated with Z-VAD-FMK (100 µM) 2 h before adding compounds[28]. The activation of caspases 9, 10, and 3/7 was detected as described before.

ROS in MCF-7 cells = assay: Total ROS activity, flow cytometry, MCF-7; format: cell-based, human; conditions: for cells that generated ROS: 24 h
Method: In brief, cells were washed two times with cold PBS solution and incubated in a solution of ROS Green dye in Assay Buffer and incubated for 1 h in optimal cell growth parameters, protected from light. After incubation, cells were washed with assay buffer. Subsequently, fluorescence emission intensities at 490 nm excitation and 520 nm emission were recorded in 500 μL assay buffer using flow cytometer BD FACSCanto II flow cytometer and FACSDiva software (BD Biosciences Systems, San Jose, CA).

mTOR in MCF-7 cells = assay: Anti-mTOR antibody flow cytometry, MCF-7; format: cell-based, human; conditions: MCF-7, 0.25 µM and 0.5 µM, 24 h
Method: (§2) To evaluate the molecular mechanism of induction of apoptosis of tested compounds, the level of p53, NF-κB, mTOR, Bax, and beclin-1 was measured using appropriate antibody according to the manufacturer’s instruction. In brief, tryspinised cells were centrifuged, then supernatant was discarded, and cells were suspended in 4% FA (formaldehyde). Prepared samples were incubated 15 min at RT. Following incubation, the 2.5 mL PBS was added to each sample and centrifuged. Then, supernatant was discarded, and cells were resuspended in 90% ice-cold methanol to perform permeabilisation and left for 1 h in ice. To remove methanol, cells were rinsed with excess PBS by centrifugation. Following centrifugation, the supernatant was discarded. Then, cells were resuspended in 100 µL of appropriate diluted (1:100 in PBS) antibody conjugate (p53 (7F5) Rabbit mAb – Alexa Fluor 488 Conjugate #5429 Cell Signalling Technology, Danvers, MA; NF-κB p65 (D14E12) XP Rabbit mAb – Alexa Fluor 647 Conjugate #8801 Cell Signalling Technology, Danvers, MA; mTOR (7C10) Rabbit mAB – Alexa Fluor 647 #5048 Cell Signalling Technology, Danvers, MA; FITC Anti-Bax antibody (T22-A) #ab139543, Abcam, Cambridge, UK) and incubated 1 h in the dark at RT. Afterwards, cells were washed by centrifugation in 2 mL of incubation buffer. Finally, supernatant was removed and 300 µL PBS was added to each sample and pipetted. […]

[2] = system: MCF-7 breast cancer cells; assay: MTT viability assay, MCF-7
Method: Following 24-h incubation with tested compounds, the medium was discarded from the cell cultures. Then, into each well with cells was added 1 mL of PBS and 50 µL of MTT solution (5 mg per mL). Cells were incubated at 37 °C and 5% CO2 in humidified atmosphere for a defined time appropriate for each cell line. After incubation, the solution above the cells was removed and obtained purple formazan crystals were dissolved in 1 mL DMSO. The absorbance was read at OD = 570 nm on Evolution 201 Spectrophotometer (Thermo Scientific, Waltham, MA).

[3] = system: caspase 10 in MDA-MB-231 cells; assay: Activity of caspase 10, MDA-MB-231; format: cell-based, human; conditions: 24 h
Method: as §1

Bax in MDA-MB-231 cells = assay: Anti-Bax antibody flow cytometry, MDA-MB-231; format: cell-based, human; conditions: 24 h
Method: To evaluate the molecular mechanism of induction of apoptosis of tested compounds, the level of p53, NF-κB, mTOR, Bax, and beclin-1 was measured using appropriate antibody according to the manufacturer’s instruction. In brief, tryspinised cells were centrifuged, then supernatant was discarded, and cells were suspended in 4% FA (formaldehyde). Prepared samples were incubated 15 min at RT. Following incubation, the 2.5 mL PBS was added to each sample and centrifuged. Then, supernatant was discarded, and cells were resuspended in 90% ice-cold methanol to perform permeabilisation and left for 1 h in ice. To remove methanol, cells were rinsed with excess PBS by centrifugation. Following centrifugation, the supernatant was discarded. Then, cells were resuspended in 100 µL of appropriate diluted (1:100 in PBS) antibody conjugate (p53 (7F5) Rabbit mAb – Alexa Fluor 488 Conjugate #5429 Cell Signalling Technology, Danvers, MA; NF-κB p65 (D14E12) XP Rabbit mAb – Alexa Fluor 647 Conjugate #8801 Cell Signalling Technology, Danvers, MA; mTOR (7C10) Rabbit mAB – Alexa Fluor 647 #5048 Cell Signalling Technology, Danvers, MA; FITC Anti-Bax antibody (T22-A) #ab139543, Abcam, Cambridge, UK) and incubated 1 h in the dark at RT. Afterwards, cells were washed by centrifugation in 2 mL of incubation buffer. Finally, supernatant was removed and 300 µL PBS was added to each sample and pipetted. The analysis was performed by flow cytometry (BD FACSCanto II, Becton Dickinson Biosciences Systems, San Jose, CA) using FACSDiva software ver. 6.1.3.

[4] = system: beclin-1 in MDA-MB-231 cells; assay: Anti-beclin-1 antibody flow cytometry, MDA-MB-231; format: cell-based, human; conditions: MDA-MB-231, 0.5 µM, 24 h
Method: The fixation and permeabilisation were performed as described above. Cells were resuspended in 100 µL of diluted primary antibody (1:100 in PBS, anti-beclin 1 antibody (2A4) #ab114071, Abcam, Cambridge, UK) and incubated 30 min in the dark at RT. The cells were washed three times by centrifugation in PBS. Then to each probe, 100 µL of diluted fluorochrome-labelled secondary antibody (1:100 in PBS; goat anti-mouse IgG H&L – Alexa Fluor 488 #ab150113, Abcam, Cambridge, UK) was added and incubated 30 min in dark at RT. Then, cells were rinsed with 2.5 mL PBS. In the last step, supernatant was discarded and cells were resuspended in 300 µL PBS and pipetted. The analysis was carried out by flow cytometry.

[5] = system: MDA-MB-231 breast cancer cells; assay: Autophagy Assay, Red, flow cytometry, MDA-MB-231; format: cell-based, human
Method: The effect of novel compound 3b at 0.25 µM and 0.5 µM concentration on the induction of autophagy in MCF-7 and MDA-MB-231 pre-treated 1 h with or not autophagy inhibitor 3-MA for 1 h (3-methyladenine, Sigma-Aldrich, St. Louis, MO) at 1 mM concentration[29] was assessed by ICT’s Autophagy Assay, Red using a flow cytometer. The test was performed as previously. Briefly, cells were washed with PBS and suspended in 490 µL of PBS. To each probe, 10 µL of diluted Autophagy Probe, Red solution was added. Prepared samples were incubated at 37 °C for 60 min. Following incubation, cells were suspended in diluted cellular assay buffer and centrifuged. Then, supernatant was removed, and cells were resuspended in diluted cellular assay buffer and centrifuged again. This step was repeated three times. Finally, cell pellet was resuspended in 0.5 mL of diluted cellular assay buffer. The analysis was performed with a flow cytometer (excitation/emission 590 nm/620 nm).

mTOR in MDA-MB-231 cells = assay: Anti-mTOR antibody flow cytometry, MDA-MB-231; format: cell-based, human; conditions: MDA-MB-231, 0.25 µM and 0.5 µM, 24 h
Method: as §2

[6] = system: caspase 3/7 in MDA-MB-231 cells; assay: Activity of caspase 3/7, MDA-MB-231; format: cell-based, human; conditions: 24 h
Method: as §1

caspase 9 in MCF-7 cells = assay: Activity of caspase 9, MCF-7; format: cell-based, human; conditions: MCF-7, 0.5 µM, 24 h
Method: as §1

[7] = system: NF-κB in MDA-MB-231 cells; assay: Anti-NF-κB antibody flow cytometry, MDA-MB-231; format: cell-based, human; conditions: 24 h
Method: as §2

[8] = system: caspase 10 in MCF-7 cells; assay: Activity of caspase 10, MCF-7; format: cell-based, human; conditions: 24 h
Method: as §1

[9] = system: caspase 9 in MDA-MB-231 cells; assay: Activity of caspase 9, MDA-MB-231; format: cell-based, human; conditions: MDA-MB-231, 0.5 µM, 24 h
Method: as §1

in vitro = conditions: human
p53 in MDA-MB-231 cells = assay: Anti-p53 antibody flow cytometry, MDA-MB-231; format: cell-based, human; conditions: MDA-MB-231, 0.25 µM and 0.5 µM, 24 h
Method: as §2

melting point: 170 to 172 °C
IC50 at 24 h (in vitro): 2300 ± 40 nM
Structure (SMILES): Cc1nn(-c2ccc(S(=O)(=O)N[C@@H](CO)Cc3ccccc3)cc2)c2nn3nnnc3nc12 [Compound 3b, (R)-N-(1-hydroxy-3-phenylpropan-2-yl)-4-(7-methyl-5H-pyrazolo[4,3-e]tetrazolo[1,5-b][1,2,4]triazin-6-yl)benzenesulfonamide]
effect on executive caspase 7 (in words) [1]: increase in activity of executive caspase 7
cells that generated ROS (ROS in MCF-7 cells; MCF-7, 0.25 µM): 19.8 ± 2.2%
increase of ROS level compared to control (ROS in MCF-7 cells; MCF-7, 0.5 µM): 12 times
cells that generated ROS (ROS in MCF-7 cells; MCF-7, 0.5 µM): 27.5 ± 1.3%
effect on cells with active mTOR (in words) (mTOR in MCF-7 cells): decrease in the number of cells with active mTOR
IC50 ([2]; Homo sapiens, MCF7, 24 h, read-out: Cytotoxicity IC50 MCF-7): 250 ± 70 nM
times stronger than the corresponding sulphonyl derivative (2a or 2b), MCF-7 ([2]; ratio of cytotoxicity, 3a vs 2a, 3b vs 2b): 22 times
cells with active caspase 10 ([3]; MDA-MB-231, 0.25 µM): 21.2 ± 1.4%
cells with active caspase 10 ([3]; MDA-MB-231, 0.5 µM): 50.8 ± 3.8%
cells with active Bax (Bax in MDA-MB-231 cells; MDA-MB-231, 0.25 µM): 6.3 ± 0.4%
cells with active Bax (Bax in MDA-MB-231 cells; MDA-MB-231, higher concentration (0.5 µM)): 16.9 ± 3.7%
cells with active beclin-1 [4]: 8.1 ± 0.1%
autophagic cells (rate of autophagosomes) ([5]; MDA-MB-231, 0.5 µM, 24 h): 47.1 ± 0.6%
autophagic cells in presence of 3-MA ([5]; MDA-MB-231, 3b 0.5 µM + 3-MA (1 mM, 1 h pre-treatment)): 25.9 ± 4.7%
effect on cells with active mTOR (in words) (mTOR in MDA-MB-231 cells): decrease in the number of cells with active mTOR
cells with active executive caspases (3 and 7) ([6]; MDA-MB-231, 0.25 µM): 23.8 ± 0.8%
cells with active executive caspases (3 and 7) ([6]; MDA-MB-231, 0.5 µM): 68.4 ± 1.2%
percentage of active form of caspase 9 (caspase 9 in MCF-7 cells): 72.1 ± 2.3%
cells with active NF-κB ([7]; MDA-MB-231, 0.25 µM): 94.8 ± 0.6%
cells with active NF-κB ([7]; MDA-MB-231, 0.5 µM): 89.6 ± 4.1%
cells with active caspase 10 ([8]; MCF-7, 0.25 µM): 12.9 ± 0.8%
cells with active caspase 10 ([8]; MCF-7, 0.5 µM): 70.8 ± 1.1%
cells with active caspase 9 [9]: 55.9 ± 1.2%
effect on p53 (in words) (p53 in MDA-MB-231 cells): activates p53
